Test results published in PubChem BioAssay (NCI).
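Growth conditions: 96-well plates. Treatment: test compound, 48 hours, 5 concentrations. Analysis: linear interpolation between bracketing concentrations; unreached endpoints set to highest concentration. TGI: concentration producing complete growth inhibition.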

Columns and labels:
Experiment in all cases: inhibition of tumour cell growth, NCI panel, 48 h
[1] = test system: IGROV1 ovarian
[2] = test system: OVCAR-5 ovarian
[3] = test system: ACHN renal
[4] = test system: LOX IMVI melanoma
[5] = test system: SNB-75 CNS
[6] = test system: SNB-19 CNS
[7] = test system: HS 578T breast
[8] = test system: NCI/ADR-RES ovarian
[9] = test system: SK-MEL-2 melanoma
[10] = test system: T-47D breast
[11] = test system: SF-295 CNS
[12] = test system: SF-539 CNS
[13] = test system: DU-145 prostate
[14] = test system: SR leukemia
[15] = test system: U251 CNS
[16] = test system: OVCAR-8 ovarian
[17] = test system: A549 NSCLC
[18] = test system: SW-620 colon
[19] = test system: CCRF-CEM leukemia
[20] = test system: RXF 393 renal
[21] = test system: MOLT-4 leukemia
[22] = test system: EKVX NSCLC
[23] = test system: HOP-62 NSCLC
[24] = test system: OVCAR-3 ovarian
[25] = test system: UACC-62 melanoma
[26] = test system: MDA-N
[27] = test system: NCI-H522 lung
[28] = test system: NCI-H23 lung
[29] = test system: SF-268 CNS
[30] = test system: UACC-257 melanoma
[31] = test system: PC-3 prostate
[32] = test system: SK-MEL-5 melanoma
[33] = test system: UO-31 renal
[34] = test system: CAKI-1 renal
[35] = test system: HCC-2998 colon
[36] = test system: HCT-15 colon
[37] = test system: KM12 colon
[38] = test system: MDA-MB-231 breast
[39] = test system: OVCAR-4 ovarian
[40] = test system: SN12C renal
[41] = test system: A498 renal
[42] = test system: M14 melanoma
[43] = test system: RPMI-8226 leukemia
[44] = test system: MALME-3M melanoma
[45] = test system: NCI-H460 lung
[46] = test system: HCT-116 colon
[47] = test system: NCI-H226 lung
[48] = test system: MDA-MB-435
[49] = test system: 786-0 renal
[50] = test system: COLO 205 colon
[51] = test system: MCF7 breast
[52] = test system: K-562 leukemia
[53] = test system: SK-MEL-28 melanoma
[54] = test system: TK-10 renal
[55] = test system: SK-OV-3 ovarian
[56] = test system: BT-549 breast
[57] = test system: HOP-92 NSCLC
[58] = test system: HT29 colon
[59] = test system: HL-60(TB) leukemia

## CN(C)CCCn1nc(N)c2nc3cc(Cl)ccc3nc21
[1]
  TGI: 94.8 µM
[2]
  TGI: > 100 µM
[3]
  TGI: > 100 µM
[4]
  TGI: > 100 µM
[5]
  TGI: > 100 µM
[6]
  TGI: > 100 µM
[7]
  TGI: > 100 µM
[8]
  TGI: > 100 µM
[9]
  TGI: > 75.7 µM
[10]
  TGI: > 100 µM
[11]
  TGI: > 100 µM
[12]
  TGI: > 100 µM
[13]
  TGI: > 100 µM
[14]
  TGI: > 100 µM
[15]
  TGI: > 100 µM
[16]
  TGI: > 100 µM
[17]
  TGI: > 100 µM
[18]
  TGI: > 100 µM
[19]
  TGI: 96.5 µM
[20]
  TGI: > 100 µM
[21]
  TGI: > 100 µM
[22]
  TGI: > 100 µM
[23]
  TGI: > 100 µM
[24]
  TGI: > 100 µM
[25]
  TGI: 45 µM
[26]
  TGI: > 100 µM
[27]
  TGI: > 100 µM
[28]
  TGI: > 100 µM
[29]
  TGI: > 100 µM
[30]
  TGI: 59.3 µM
[31]
  TGI: > 100 µM
[32]
  TGI: 41.3 µM
[33]
  TGI: > 92.6 µM
[34]
  TGI: > 100 µM
[35]
  TGI: > 100 µM
[36]
  TGI: > 100 µM
[37]
  TGI: > 100 µM
[38]
  TGI: > 100 µM
[39]
  TGI: > 100 µM
[40]
  TGI: > 100 µM
[41]
  TGI: > 100 µM
[42]
  TGI: 47.4 µM
[43]
  TGI: > 100 µM
[44]
  TGI: > 100 µM
[45]
  TGI: > 100 µM
[46]
  TGI: > 100 µM
[47]
  TGI: > 100 µM
[48]
  TGI: > 100 µM
[49]
  TGI: > 100 µM
[50]
  TGI: > 100 µM
[51]
  TGI: > 100 µM
[52]
  TGI: > 100 µM
[53]
  TGI: 35.7 µM
[54]
  TGI: > 100 µM
[55]
  TGI: > 100 µM
[56]
  TGI: > 100 µM
[57]
  TGI: 76.7 µM
[58]
  TGI: > 100 µM

## O=c1c(=O)c2c(Br)sc(Br)c2c1=O
[1]
  TGI: 34.7 µM
[2]
  TGI: 39.8 µM
[3]
  TGI: 44.7 µM
[4]
  TGI: 36.4 µM
[5]
  TGI: 75.2 µM
[6]
  TGI: > 100 µM
[7]
  TGI: > 100 µM
[8]
  TGI: > 100 µM
[9]
  TGI: 41.1 µM
[10]
  TGI: 47.8 µM
[11]
  TGI: > 100 µM
[12]
  TGI: 35.3 µM
[13]
  TGI: > 100 µM
[14]
  TGI: 44.2 µM
[15]
  TGI: 61 µM
[16]
  TGI: 37.4 µM
[17]
  TGI: > 100 µM
[18]
  TGI: 31.8 µM
[20]
  TGI: 34.7 µM
[21]
  TGI: 48.3 µM
[22]
  TGI: 42.8 µM
[23]
  TGI: > 100 µM
[24]
  TGI: 35.2 µM
[25]
  TGI: 39.3 µM
[26]
  TGI: 32.8 µM
[27]
  TGI: 32 µM
[28]
  TGI: 40.6 µM
[29]
  TGI: > 100 µM
[30]
  TGI: 36.5 µM
[31]
  TGI: 36.5 µM
[32]
  TGI: 31.8 µM
[33]
  TGI: 51.4 µM
[34]
  TGI: 33.4 µM
[35]
  TGI: > 100 µM
[36]
  TGI: 40.1 µM
[37]
  TGI: > 100 µM
[39]
  TGI: 31.2 µM
[40]
  TGI: 31.6 µM
[41]
  TGI: > 100 µM
[42]
  TGI: 34.3 µM
[43]
  TGI: 45.9 µM
[44]
  TGI: 31.8 µM
[45]
  TGI: > 100 µM
[46]
  TGI: 37.8 µM
[47]
  TGI: > 100 µM
[48]
  TGI: 37.7 µM
[49]
  TGI: 56.5 µM
[50]
  TGI: 38.6 µM
[51]
  TGI: 42.3 µM
[52]
  TGI: 51 µM
[53]
  TGI: 28.7 µM
[54]
  TGI: 47.7 µM
[55]
  TGI: > 100 µM
[56]
  TGI: 36.6 µM
[57]
  TGI: 33 µM
[58]
  TGI: 57.4 µM

## O=C(Cc1ccccc1)Nn1c(-c2ccccc2)nc2ccccc2c1=O
[1]
  TGI: > 100 µM
[2]
  TGI: > 100 µM
[3]
  TGI: > 100 µM
[4]
  TGI: > 100 µM
[5]
  TGI: > 100 µM
[6]
  TGI: > 100 µM
[7]
  TGI: > 100 µM
[10]
  TGI: > 100 µM
[11]
  TGI: > 100 µM
[12]
  TGI: > 100 µM
[13]
  TGI: > 100 µM
[14]
  TGI: > 100 µM
[15]
  TGI: > 100 µM
[16]
  TGI: > 100 µM
[17]
  TGI: > 100 µM
[18]
  TGI: > 100 µM
[19]
  TGI: > 100 µM
[20]
  TGI: > 100 µM
[21]
  TGI: > 100 µM
[22]
  TGI: > 100 µM
[23]
  TGI: > 100 µM
[24]
  TGI: > 100 µM
[25]
  TGI: > 100 µM
[26]
  TGI: > 100 µM
[27]
  TGI: > 100 µM
[28]
  TGI: > 100 µM
[29]
  TGI: > 100 µM
[30]
  TGI: > 100 µM
[31]
  TGI: > 100 µM
[32]
  TGI: > 100 µM
[33]
  TGI: > 100 µM
[35]
  TGI: > 100 µM
[37]
  TGI: > 100 µM
[38]
  TGI: > 100 µM
[39]
  TGI: > 100 µM
[40]
  TGI: > 100 µM
[41]
  TGI: > 100 µM
[42]
  TGI: > 100 µM
[43]
  TGI: > 100 µM
[44]
  TGI: > 100 µM
[45]
  TGI: > 100 µM
[46]
  TGI: > 100 µM
[47]
  TGI: > 100 µM
[48]
  TGI: > 100 µM
[59]
  TGI: > 100 µM
[49]
  TGI: > 100 µM
[50]
  TGI: > 100 µM
[51]
  TGI: > 100 µM
[52]
  TGI: > 100 µM
[53]
  TGI: > 100 µM
[54]
  TGI: > 100 µM
[55]
  TGI: > 100 µM
[56]
  TGI: > 100 µM
[57]
  TGI: > 100 µM
[58]
  TGI: > 100 µM
